What all share (assay type): biochemical
One test concerns the target T1, KDM5B (PLU-1) (Homo sapiens, UniProt Q9UGL1).
T1 construct: BRIC; 1-809; E. coli; host or cells: E. coli
T1 sequence (Q9UGL1 1-809): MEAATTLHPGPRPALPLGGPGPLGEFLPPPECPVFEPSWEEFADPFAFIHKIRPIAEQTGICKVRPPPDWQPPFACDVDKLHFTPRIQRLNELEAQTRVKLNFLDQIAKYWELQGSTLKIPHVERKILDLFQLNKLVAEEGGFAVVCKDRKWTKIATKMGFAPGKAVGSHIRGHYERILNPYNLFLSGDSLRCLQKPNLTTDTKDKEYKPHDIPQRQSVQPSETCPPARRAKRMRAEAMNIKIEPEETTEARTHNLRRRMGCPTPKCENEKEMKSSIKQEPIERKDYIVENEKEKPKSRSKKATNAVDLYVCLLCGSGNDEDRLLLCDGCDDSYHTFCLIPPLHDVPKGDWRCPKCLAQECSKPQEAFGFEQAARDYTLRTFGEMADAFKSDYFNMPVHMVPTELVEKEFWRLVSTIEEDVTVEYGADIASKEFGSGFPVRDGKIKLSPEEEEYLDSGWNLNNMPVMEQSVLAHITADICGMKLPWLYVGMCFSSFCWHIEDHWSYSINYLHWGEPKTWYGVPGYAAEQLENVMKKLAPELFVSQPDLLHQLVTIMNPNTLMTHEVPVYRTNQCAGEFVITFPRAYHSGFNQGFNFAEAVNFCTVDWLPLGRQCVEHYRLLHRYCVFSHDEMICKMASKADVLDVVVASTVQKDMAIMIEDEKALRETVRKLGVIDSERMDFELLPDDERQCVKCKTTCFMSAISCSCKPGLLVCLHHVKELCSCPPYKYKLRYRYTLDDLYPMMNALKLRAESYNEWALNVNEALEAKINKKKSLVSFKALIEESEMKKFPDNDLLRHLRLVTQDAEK
The test is described as follows: Histone lysine demethylase AlphaLISA assay, KDM5B. In short, it runs like this:
(§1)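 AlphaLISA readout after sequential addition of acceptor beads and streptavidin donor beads, incubated at room temperature in the dark. Demethylase reaction ran at room temperature following a 10-minute enzyme–compound preincubation in 50 mM Hepes (pH 7.4-8.0), 0.1% BSA, Tween-20, 5 μM (NH4)2Fe(SO4)2.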
For orientation: In Alpha technology, singlet oxygen from a donor bead excites a nearby acceptor bead.

In another test the target is T2, KDM6A (UTX) (Homo sapiens, UniProt O15550).
T2 construct: KDM6A (UTX); BRIC; 919-1401; E. coli; host or cells: E. coli
T2 sequence (O15550 919-1401): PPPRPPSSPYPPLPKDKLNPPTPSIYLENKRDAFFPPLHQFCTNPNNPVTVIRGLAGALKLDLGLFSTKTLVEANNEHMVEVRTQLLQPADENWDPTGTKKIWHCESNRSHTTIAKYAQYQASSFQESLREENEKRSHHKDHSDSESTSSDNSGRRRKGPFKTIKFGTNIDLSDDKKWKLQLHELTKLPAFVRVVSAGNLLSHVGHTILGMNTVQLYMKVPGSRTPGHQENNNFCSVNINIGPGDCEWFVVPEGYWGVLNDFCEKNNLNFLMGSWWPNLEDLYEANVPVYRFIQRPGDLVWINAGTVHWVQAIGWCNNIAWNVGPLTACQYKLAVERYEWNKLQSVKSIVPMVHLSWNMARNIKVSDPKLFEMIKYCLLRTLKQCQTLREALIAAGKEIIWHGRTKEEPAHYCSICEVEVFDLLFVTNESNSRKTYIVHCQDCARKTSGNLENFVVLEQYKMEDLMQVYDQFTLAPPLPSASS
The test is described as follows: Histone lysine demethylase AlphaLISA assay, KDM6A. As for the experimental part: The compounds of the application, or a pharmaceutically acceptable salt, or solvate, or prodrug thereof, are tested in an in vitro AlphaLISA assay. Enzymes are dissolved in enzyme buffer and incubated before they are added to DMSO solutions of compounds of the application, or a pharmaceutically acceptable salt, or solvate, or prodrug thereof, in enzyme buffer. The reaction mixture is then incubated for an additional period of time before substrate solution is added and then the resulting mixture again incubated. Acceptor beads and suspended Epigenetic Buffer from stock are added and the suspension is again incubated before a suspension of streptavidin donor beads in Epigenetic Buffer is added. After an additional period of incubation, the plates are read.
The ability of compounds of the application to inhibit the histone lysine demethylase activity in vitro of different enzymes was determined.
The reaction mixture was incubated for another 10 minutes before 5 μL of substrate solution was added and the resulting mixture was then incubated at room temperature. […] After incubation at room temperature in the dark, the plates were read.
Enzyme Buffer: 50 mM Hepes (pH 7.4-8.0), 0.003-0.01% Tween-20, 0.1% BSA; 5 μM (NH4)2Fe(SO4)2.

A further test addresses T3, KDM4C (JMJD2C) (Homo sapiens, UniProt Q9H3R0).
T3 construct: KDM4C; BRIC, Denmark; 1-349; E. coli; host or cells: E. coli
T3 sequence (Q9H3R0 1-349): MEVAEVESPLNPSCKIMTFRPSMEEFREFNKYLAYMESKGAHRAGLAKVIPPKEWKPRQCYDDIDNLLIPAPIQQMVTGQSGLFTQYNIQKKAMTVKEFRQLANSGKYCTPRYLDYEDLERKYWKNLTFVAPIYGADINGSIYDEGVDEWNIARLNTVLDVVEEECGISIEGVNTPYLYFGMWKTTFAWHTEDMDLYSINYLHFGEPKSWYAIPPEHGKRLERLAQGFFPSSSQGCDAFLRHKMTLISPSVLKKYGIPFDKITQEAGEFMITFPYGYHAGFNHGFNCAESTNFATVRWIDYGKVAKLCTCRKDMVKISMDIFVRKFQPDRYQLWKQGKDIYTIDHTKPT
The test is described as follows: Histone lysine demethylase AlphaLISA assay, KDM4C. In short, it runs like this:
as §1

The target of the next test is T4, KDM2B (FBXL10) (Homo sapiens, UniProt Q8NHM5).
T4 construct: KDM2B; BPS,; 1-650; Bac; purchased BPS Bioscience, US; host or cells: baculovirus system
T4 sequence (Q8NHM5 1-650): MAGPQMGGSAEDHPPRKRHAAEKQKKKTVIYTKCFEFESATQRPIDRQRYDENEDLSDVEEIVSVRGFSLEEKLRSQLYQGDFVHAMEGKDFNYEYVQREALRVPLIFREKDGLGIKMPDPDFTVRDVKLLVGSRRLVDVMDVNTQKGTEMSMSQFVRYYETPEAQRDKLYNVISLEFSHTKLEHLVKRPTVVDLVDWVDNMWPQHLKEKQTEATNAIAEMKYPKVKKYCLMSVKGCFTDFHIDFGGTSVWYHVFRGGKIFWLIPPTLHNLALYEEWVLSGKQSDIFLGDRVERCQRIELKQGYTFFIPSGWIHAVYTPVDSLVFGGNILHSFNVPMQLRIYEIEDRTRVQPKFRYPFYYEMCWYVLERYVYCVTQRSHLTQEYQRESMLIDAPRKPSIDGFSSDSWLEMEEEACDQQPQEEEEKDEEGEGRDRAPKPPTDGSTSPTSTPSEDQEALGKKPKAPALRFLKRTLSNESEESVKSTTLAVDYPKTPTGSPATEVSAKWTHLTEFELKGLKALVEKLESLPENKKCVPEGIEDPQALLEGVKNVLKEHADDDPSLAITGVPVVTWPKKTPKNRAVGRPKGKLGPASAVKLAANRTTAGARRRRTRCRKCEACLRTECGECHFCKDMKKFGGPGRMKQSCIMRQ
The test is described as follows: Histone lysine demethylase AlphaLISA assay, KDM2B. Conditions: AlphaLISA, in vitro; read-out: HDME Inhibition KDM2B. In short, it runs like this:
as §1

The next test has as its target T5, PHF8 (KDM7) (Homo sapiens, UniProt Q9UPP1).
T5 construct: KDM7 (PHF8); BRIC; 1-1322; Bac
The test is described as follows: Histone lysine demethylase AlphaLISA assay, PHF8. In short, it runs like this: as §1

Setting [1] is: AlphaLISA assay, read-out: HDME Inhibition KDM5B (IC50).
Setting [2] is: AlphaLISA, in vitro, read-out: HDME Inhibition KDM5B.
[3] abbreviates: AlphaLISA assay, read-out: HDME Inhibition KDM6A (IC50).
Where [4] appears, read: AlphaLISA, in vitro, read-out: HDME Inhibition KDM6A.
Where [5] appears, read: AlphaLISA assay, read-out: HDME Inhibition KDM4C (IC50).
[6] abbreviates: AlphaLISA, in vitro, read-out: HDME Inhibition KDM4C.
Where [7] appears, read: AlphaLISA assay, read-out: HDME Inhibition PHF8 (IC50).
Setting [8] is: AlphaLISA, in vitro, read-out: HDME Inhibition PHF8.

Like-named read-outs stand apart in the source and are kept apart here.

T5 sequence (Q9UPP1 37-440 limits assumed): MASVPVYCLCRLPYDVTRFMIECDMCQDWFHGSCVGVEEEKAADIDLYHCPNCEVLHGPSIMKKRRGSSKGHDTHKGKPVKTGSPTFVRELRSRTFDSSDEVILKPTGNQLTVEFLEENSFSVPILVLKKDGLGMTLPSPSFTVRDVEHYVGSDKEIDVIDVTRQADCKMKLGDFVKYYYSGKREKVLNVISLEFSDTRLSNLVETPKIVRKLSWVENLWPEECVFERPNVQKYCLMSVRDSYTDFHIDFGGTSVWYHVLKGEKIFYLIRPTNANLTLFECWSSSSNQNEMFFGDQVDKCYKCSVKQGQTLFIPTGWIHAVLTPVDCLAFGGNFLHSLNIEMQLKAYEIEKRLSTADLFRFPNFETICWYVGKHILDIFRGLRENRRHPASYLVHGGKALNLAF

For the compound `Cc1cc(C(=O)O)cc(CNCc2ncc(CCCc3ccccc3)n2Cc2ccc(F)cc2)n1` [Compound 31, 2-{[({1-[(4-fluorophenyl)methyl]-5-(3-phenylpropyl)-1H-imidazol-2-yl}methyl)amino]methyl}-6-methylpyridine-4-carboxylic acid], the IC50 at KDM5B (PLU-1) (setting [1]), at KDM5B (PLU-1) (setting [2]), at KDM6A (UTX) (setting [3]), on KDM6A (UTX) (setting [4]), on KDM4C (JMJD2C) (setting [5]) and on KDM4C (JMJD2C) (setting [6]) was more than 10 µM in each case. The IC50 at KDM2B (FBXL10) is 3970 nM; at PHF8 (KDM7) (setting [7]), more than 10 µM; at PHF8 (KDM7) (setting [8]), more than 10 µM.

With `C/C=C/c1cc(C(=O)O)cc(CNCc2nccn2Cc2ccc(F)cc2)n1` [Compound 5, 2-{[({1-[(4-fluorophenyl)methyl]-1H-imidazol-2-yl}methyl)amino]methyl}-6-[(1E)-prop-1-en-1-yl]pyridine-4-carboxylic acid], the IC50 at KDM5B (PLU-1) (setting [1]), at KDM5B (PLU-1) (setting [2]), at KDM6A (UTX) (setting [3]), at KDM6A (UTX) (setting [4]), on KDM4C (JMJD2C) (setting [5]) and on KDM4C (JMJD2C) (setting [6]) was more than 10 µM throughout. In addition, the IC50 on KDM2B (FBXL10) came out at 1600 nM; on PHF8 (KDM7) (setting [8]) it was 3.76 µM.

For the compound `CCCCCCCc1cccnc1CCNCc1cc(C(=O)O)cc(C)n1` [Compound 21, 2-({[2-(3-heptylpyridin-2-yl)ethyl]amino}methyl)-6-methylpyridine-4-carboxylic acid], the IC50 on KDM5B (PLU-1) (setting [1]), at KDM5B (PLU-1) (setting [2]), on KDM6A (UTX) (setting [3]), at KDM6A (UTX) (setting [4]), on KDM4C (JMJD2C) (setting [5]) and at KDM4C (JMJD2C) (setting [6]) was more than 10 µM in each case. The IC50 is 5350 nM on KDM2B (FBXL10), more than 10 µM at PHF8 (KDM7) (setting [7]) and more than 10 µM at PHF8 (KDM7) (setting [8]).

Take `Cc1cc(C(=O)O)cc(CNCc2ncc(C(C)C)n2Cc2ccc(F)cc2)n1` [Compound 8, 2-{[({1-[(4-fluorophenyl)methyl]-5-(propan-2-yl)-1H-imidazol-2-yl}methyl)amino]methyl}-6-methylpyridine-4-carboxylic acid]: the IC50 on KDM5B (PLU-1) (setting [1]), on KDM5B (PLU-1) (setting [2]), at KDM6A (UTX) (setting [3]), at KDM6A (UTX) (setting [4]), at KDM4C (JMJD2C) (setting [5]) and at KDM4C (JMJD2C) (setting [6]) was more than 10 µM throughout. For the same compound, the IC50 at KDM2B (FBXL10) was 150 nM; at PHF8 (KDM7) (setting [8]) it was 0.384 µM.

Take `Cc1cc(C(=O)O)cc(CNCc2nnc(Cc3ccccc3)n2Cc2ccc(F)cc2)n1` [Compound 29, 2-{[({5-benzyl-4-[(4-fluorophenyl)methyl]-4H-1,2,4-triazol-3-yl}methyl)amino]methyl}-6-methylpyridine-4-carboxylic acid]: the IC50 at KDM5B (PLU-1) (setting [1]), on KDM5B (PLU-1) (setting [2]), at KDM6A (UTX) (setting [3]), at KDM6A (UTX) (setting [4]), on KDM4C (JMJD2C) (setting [5]) and on KDM4C (JMJD2C) (setting [6]) was more than 10 µM throughout. The IC50 at KDM2B (FBXL10) amounted to 1140 nM; at PHF8 (KDM7) (setting [8]), 2.65 µM.

With `CCC(C)Cc1cnc(CNCc2cc(C(=O)O)cc(C)n2)n1Cc1ccc(F)cc1` (centres unmarked) [Compound 30, 2-{[({1-[(4-fluorophenyl)methyl]-5-(2-methylbutyl)-1H-imidazol-2-yl}methyl)amino]methyl}-6-methylpyridine-4-carboxylic acid], the IC50 on KDM5B (PLU-1) (setting [1]), at KDM5B (PLU-1) (setting [2]), at KDM6A (UTX) (setting [3]), on KDM6A (UTX) (setting [4]), on KDM4C (JMJD2C) (setting [5]) and at KDM4C (JMJD2C) (setting [6]) was more than 10 µM throughout. Moreover, the IC50 at KDM2B (FBXL10) is 703 nM; on PHF8 (KDM7) (setting [8]) it was 2.22 µM.

For the compound `CC#Cc1cc(C(=O)O)cc(CNCc2nccn2Cc2ccc(F)cc2)n1` [Compound 6, 2-{[({1-[(4-fluorophenyl)methyl]-1H-imidazol-2-yl}methyl)amino]methyl}-6-(prop-1-yn-1-yl)pyridine-4-carboxylic acid], the IC50 against KDM5B (PLU-1) was 3.35 µM; at KDM6A (UTX) (setting [3]), more than 10 µM; on KDM6A (UTX) (setting [4]), more than 10 µM; on KDM4C (JMJD2C) (setting [5]), more than 10 µM; at KDM4C (JMJD2C) (setting [6]) it was more than 10 µM; at KDM2B (FBXL10) it was 708 nM. Further, the IC50 at PHF8 (KDM7) (setting [8]) is 0.353 µM.

In the case of `C=Cc1cc(C(=O)O)cc(CNCc2nccn2Cc2ccc(F)cc2)n1` [Compound 12, 2-ethenyl-6-{[({1-[(4-fluorophenyl)methyl]-1H-imidazol-2-yl}methyl)amino]methyl}pyridine-4-carboxylic acid], the IC50 was 3.76 µM against KDM5B (PLU-1); more than 10 µM on KDM6A (UTX) (setting [3]); more than 10 µM at KDM6A (UTX) (setting [4]); more than 10 µM at KDM4C (JMJD2C) (setting [5]); more than 10 µM at KDM4C (JMJD2C) (setting [6]); 1600 nM at KDM2B (FBXL10). Also, the IC50 at PHF8 (KDM7) (setting [7]) and on PHF8 (KDM7) (setting [8]) was more than 10 µM each time.

In the case of `Cc1cc(C(=O)O)cc(CNCCc2ccccn2)n1` [Compound 3, 2-methyl-6-({[2-(pyridin-2-yl)ethyl]amino}methyl)pyridine-4-carboxylic acid], the IC50 at KDM5B (PLU-1) (setting [1]), at KDM5B (PLU-1) (setting [2]), on KDM6A (UTX) (setting [3]), on KDM6A (UTX) (setting [4]), at KDM4C (JMJD2C) (setting [5]) and on KDM4C (JMJD2C) (setting [6]) was more than 10 µM each time. The IC50 on KDM2B (FBXL10) was 4650 nM; at PHF8 (KDM7) (setting [7]), more than 10 µM; at PHF8 (KDM7) (setting [8]) it was more than 10 µM.

These data come from patent US9802941B2, “Compounds and methods for inhibiting histone demethylases” (Gilead Sciences, Inc., priority 2014, dated 2017).
